Reference: patent US20070142433A1, “Angiogenesis-affecting compounds and methods of use thereof” (priority 2004, published 2007)
Where a name gives a salt, the structure may show the parent alone. Read-outs that look alike come from different tables or passages of the source.

Key:
A375 = assay: Cell proliferation assay (crystal violet), A375; type: cell-based; settings: Homo sapiens, A-375, 72 hours, OD 595 nm
Description: In order to further confirm the surprising results described above, the compounds were tested in a cell proliferation assay. Crystal violet was used to measure cell proliferation; this basic dye stains cell nuclei and provides a sensitive, rapid evaluation. Light absorption of unstained or destained cell layers is negligible, making it possible to perform cell number measurements in wells. Six cell types (HUVEC, HDMEC, SMC, Fibroblast, A375 and RENCA) were plated and treated with the compounds in a log2 titration for 72 hours. The optimal cell number for each cell type was determined and optical density (OD) was measured at 595 nm. Each data point was measured in quadruplicate. The assay was stopped after 72 hours and subsequently analyzed. The OD-value of the plated cells before addition of the compounds was subtracted from all OD-values obtained after treatment. The percentage in relation to control proliferation was then calculated. Negative values therefore represent a count of fewer cells than were plated. The IC50 is given below in Table 1. Results are shown as a percentage in relation to the control proliferation. The IC50 were calculated using GraphPad Prism software (GraphPad Software, Inc.). Perhexiline results are depicted graphically in FIGS. 4A-4C and Erythromycin results in FIGS. 5A-5C.

[1] = system: Alexander cells (PLC/PRF/5) subcutaneous tumor; assay: Hepato-Cellular Carcinoma Model (HCC) in vivo study, subcutaneous Alexander cells; design: species or system NMRI nu/nu mice
Description: Monolayers of Alexander cells can be grown in 85% Dulbecco's Modified Eagle's Medium (DMEM), 15% Fetal Bovine Serum (FBS), 4 mM L-glutamine, 100 units penicillinG/ml, and 100 μg of streptomycin-sulfate/ml. The cells can be cultured in a humidified atmosphere of 90% air and 10% carbon dioxide at 37° C. Media may preferably be changed every 4 days.
Six to eight week old female NMRI^−nu/nu mice could be utilized. The Alexander cells can be implanted in the left flank region of the mice, for example, by injecting 4×10^7 cells in 0.2 ml aliquots into the subcutaneous space of the left flank using a 29 G needle syringe. After inoculation the appearing subcutaneous tumours can be measured by callipering and multiplying the distances of all three dimensions.
Therapy can be initiated after the tumor size has reached a volume of approximately 100 mm^3 (day 1 of the study), and continue for about 21 days.
As shown, Group 1 would serve as control, where the animals would receive no further treatment after injection of Alexander cells.
After approximately 21 days of treatment, mice could be sacrificed and tumors collected and optionally stored appropriately at −80° C. For histological examination of the tumor vasculature, cryosections of the tissues (thickness of 5-10 μm) can be taken. For visualization of the blood vessels, immunohistochemical staining for CD 31 (PECAM-1) can be performed, and vessels counted microscopically using a defined magnification (×200).

HUVEC [2] = assay: Cytoviability assay (resazurin), HUVEC; type: cell-based; settings: Homo sapiens, 24 hours after treatment, read-out: IC50 cell viability HUVEC
Description: A cell viability assay based on cellular reduction of resazurin to the fluorescent product resorufin was performed. Viable cells can metabolize and reduce the dye, whereas dead cells rapidly lose the capacity to do so, making the increase in fluorescence directly proportional to the number of viable cells. The tested compounds were added in a log2 titration and viable cells were analyzed 24 hours after treatment. The fluorescence was determined at an excitation wavelength of 560 nm and an emission wavelength of 590 nm. The percentage of viable cells in relation to the untreated control proliferation was calculated. […] Perhexiline results are depicted graphically in FIGS. 6A-6C and Erythromycin results in FIGS. 7A-7C.

HUVEC [3] = assay: Cell proliferation assay (crystal violet), HUVEC; type: cell-based; settings: Homo sapiens, 72 hours, OD 595 nm
Description: In order to further confirm the surprising results described above, the compounds were tested in a cell proliferation assay. Crystal violet was used to measure cell proliferation; this basic dye stains cell nuclei and provides a sensitive, rapid evaluation. Light absorption of unstained or destained cell layers is negligible, making it possible to perform cell number measurements in wells.
Six cell types (HUVEC, HDMEC, SMC, Fibroblast, A375 and RENCA) were plated and treated with the compounds in a log2 titration for 72 hours. The optimal cell number for each cell type was determined and optical density (OD) was measured at 595 nm. Each data point was measured in quadruplicate. The assay was stopped after 72 hours and subsequently analyzed.
The OD-value of the plated cells before addition of the compounds was subtracted from all OD-values obtained after treatment. The percentage in relation to control proliferation was then calculated. Negative values therefore represent a count of fewer cells than were plated. The IC50 is given below in Table 1. Results are shown as a percentage in relation to the control proliferation. The IC50 were calculated using GraphPad Prism software (GraphPad Software, Inc.). Perhexiline results are depicted graphically in FIGS. 4A-4C and Erythromycin results in FIGS. 5A-5C. […]

HUVEC sprouting = assay: Spheroid-based 3D angiogenesis assay (IC50, alone or with VEGFR-2 inhibitor); type: cell-based, human; settings: Homo sapiens, HUVEC
Source text: Therefore, the assay was applied to test compounds alone or in combination with a VEGFR-2 inhibitor to address changes in IC50. […] The VEGFR-2 inhibitor was applied at a concentration close to the IC50.

IC50 (A375): 25 µM
Structure (SMILES): C1CCC(C(CC2CCCCN2)C2CCCCC2)CC1 (stereo not shown) [Perhexiline, Perhexiline maleate]
tumor growth compared to control ([1]; subcutaneous Alexander cell tumors in mice, about 21 days of treatment, FIGS. 28-30): reduced
vessel density ([1]; tumor vasculature, FIG. 36): significant effect on vessel density
IC50 (HUVEC [2]): 8.4 µM
IC50 (HUVEC [3]): 10 µM
IC50 (HUVEC sprouting; compound alone, read-out: IC50 3D angiogenesis assay without VEGFR-2 inhibitor): 5.4 µM
IC50 (HUVEC sprouting; read-out: IC50 in vitro 3D sprouting of HUVEC): 1.5 µM
